Entries after “also recorded” stand apart in the source; their conditions may differ.

Assay [1] has as its target T1, cytochrome c-CL complex (Homo sapiens, UniProt P99999). Nature of the assay: Fluorescence spectroscopy of peptide with cytochrome c in the presence of CL. The assay is classed as binding. The conditions noted are these: peptide 10 μM, CL 50 μg/ml. How it is done: Fluorescence emission of SS-19 (10 μM) was monitored in real time (Ex/Em=320 nm/420 nm) using Hitachi F-4500 fluorescence spectrophotometer. […] CL may potentiate the interaction between SS-19 and cytochrome c by serving as an anionic platform for the two cationic molecules.
The quenching by cytochrome c was not displaced by sequential additions of bovine serum albumin (500 μg/ml) (FIG. 23C, A+arrows).
SS-36 also contains the polarity-sensitive fluorescent amino acid aladan.

Assay [2] concerns the target T1, cytochrome c-CL complex. The experiment in a line: Cytochrome c/CL peroxidase activity (amplex red). The assay is classed as biochemical. The conditions noted are these: figure legend FIG. 29A-C; comparison at a fixed concentration of 10 μM (FIG. 29C). The source says:
The six coordination of the heme in cytochrome c prevents direct interaction of H2O2 with the catalytic metal site, and native cytochrome c in solution is a poor peroxidase. Upon interaction with CL, cytochrome c undergoes a structural change with rupture of the Fe-Met80 coordination. […] The mechanism of action of cytochrome c peroxidase is similar to that of other peroxidases, such as horse radish peroxidase (HRP). Thus it is possible to use the amplex red-HRP reaction to investigate cytochrome c peroxidase activity. In the presence of peroxidase, amplex red (AR) reacts with H2O2 to form the red-fluorescent oxidation product, resorufin (Ex/Em=571/585).
Cytochrome c (2 μM) was mixed with CL (25 μg/ml) and 10 μM H2O2 in 20 mM HEPES, pH 7.4. Amplex red (50 μM) was then added and fluorescence emission monitored in real time using Hitachi F4500 fluorescence spectrophotometer. Addition of amplex red elicited rapid increase in fluorescence signal due to resorufin formation, providing direct evidence for peroxidase activity of cytochrome c/CL complex (FIG. 29A).

Another assay deals with cytochrome c. Nature of the assay: Fluorescence quenching of peptide by cytochrome c. The class given is binding. As to the method: (§1) Maximal fluorescence emission of SS-19 was monitored at 420 nm following excitation at 320 nm using Hitachi F-4500 fluorescence spectrophotometer.
(§2) The quenching by cytochrome c was not displaced by sequential additions of bovine serum albumin (FIG. 22C, A+arrows) (500 μg/ml).
Fluorescence emission of SS-19 (10 μM) was monitored in real time (Ex/Em=320 nm/420 nm) using Hitachi F-4500 fluorescence spectrophotometer.

Assay [3] has as its target heme environment of cytochrome c (with CL) (Homo sapiens, UniProt P99999). The experiment in a line: Soret CD spectrum of cyt C in the presence of CL. The assay is classed as binding. The conditions noted are these: cyt C 10 μM; CL 30 μg/ml; peptide 10 μM; 20 mM HEPES pH 7.5, 25° C.; FIG. 24. How it is done:
Circular dichroism (CD) was carried out to examine the effects of the peptides on protecting the heme environment of cyt C from the acyl chain of CL. For heme proteins, the Soret CD spectrum is strictly correlated with the heme pocket conformation. In particular, the negative 416-420 nm Cotton effect is considered diagnostic of Fe(III)-Met80 coordination in native cyt C (Santucci and Ascoli, 1997). […] CD spectra were obtained using AVIV CD Spectrometer Model 410.
Changes in the Soret CD spectrum of cyt C (10 μM) were recorded in the absence (dotted line) and presence (dashed line) of 30 μg/ml CL, plus addition of different peptides (10 μM) (solid line) (FIG. 24). CD measurements were carried out using 20 mM HEPES, pH 7.5, at 25° C. and expressed as molar ellipticity (θ) (m Deg).

The nature of assay [4]: Fluorescence spectroscopy of peptide interaction with cardiolipin. The assay is classed as binding. The conditions noted are these: peptide 1 μM, CL 5-50 μg/ml. The source says: The peptides Dmt-D-Arg-(atn)Dap-Lys-NH2 (SS-19) and Dmt-D-Arg-Phe-Lys-Ald-NH2 (SS-37)cationic peptides carry net positive charge at neutral pH. They are expected to associate with anionic phospholipid cardiolipin based on electrostatic interaction. The interaction of small peptides with lipid membranes can been studied using fluorescence spectroscopy (Surewicz and Epand, 1984). […] Polarity-sensitive fluorescent probes were incorporated into the peptides and fluorescence spectroscopy was used to determine if SS-19, SS-37 and SS-36 interact with CL.
The peptide Dmt-D-Arg-Phe-(atn)Dap-NH2 (SS-19) contains anthraniloyl incorporated into diaminopropionic acid. Anthraniloyl derivatives fluoresce in the 410-420 nm range when excited at 320-330 nm (Hiratsuka T, 1983). The quantum yield of anthraniloyl derivatives is strongly dependent on the local environment, and can increase 5-fold going from water to 80% ethanol, together with a blue shift in the emission maxima (λ max) of <10 nm (Hiratsuka T, 1983). Fluorescence emission spectrum of SS-19 (1 μM) alone, and in the presence of increasing concentrations of CL (5 to 50 μg/ml), was monitored following excitation at 320 nm using Hitachi F-4500 fluorescence spectrophotometer.
The peptide Dmt-D-Arg-Phe-Lys-Ald-NH2 (SS-37) contains an additional amino acid, aladan (Ald), which has been reported to be particularly sensitive to the polarity of its environment and it has been used to probe the electrostatic character of proteins (Cohen et al., 2002). When excited at 350 nm, λmax shifts from 542 nm in water to 409 nm in heptane, accompanied by a significant increase in quantal yield (Cohen et al., 2001). Fluorescence emission spectrum of SS-37 (1 μM) alone, and in the presence of increasing concentrations of CL, was monitored following excitation at 350 nm. Addition of CL (5 to 50 μg/ml) led to a 3-fold increase in quantal yield of SS-37 as well as a clear blue shift in λmax, from 525 nm without CL to 500 nm with 50 μg/ml CL (FIG. 21B).
The peptide Dmt-D-Arg-Ald-Lys-NH2 (SS-36) contains Ald in place Phe^3. Fluorescence emission spectrum of SS-36 (1 μM) alone, and in the presence of increasing concentrations of CL, was monitored following excitation at 350 nm. SS-36 was the most sensitive to the addition of CL, with dramatic increase in quantal yield and blue shift observed with much lower added amounts of CL (1.25 to 5 μg/ml). The λmax shifted from 525 nm without CL to 500 nm with as little as 1.25 μg/ml CL, and quantal yield increased by more than 100-fold with the addition of 5 μg/ml of CL (FIG. 21C).

In assay [5] the test system is isolated rat renal kidney mitochondria. Nature of the assay: Fluorescence quenching of peptide by mitochondria or mitoplasts. The class given is binding. How it is done: as §1, §2
The nature of assay [6]: Antioxidant ability: neutralizing reactive species, lipid peroxidation. The assay is classed as biochemical.
The nature of assay [7]: Animal models of ischemia-reperfusion injury, neurodegenerative diseases and metabolic syndrome. The conditions noted are these: neurodegenerative diseases, metabolic syndrome. The assay is classed as in vivo.

T1 sequence (P99999 2-105 limits assumed, species assumed, one chain of several): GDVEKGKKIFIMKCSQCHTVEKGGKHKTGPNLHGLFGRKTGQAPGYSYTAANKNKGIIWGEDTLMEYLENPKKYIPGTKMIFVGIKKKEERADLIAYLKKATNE
heme environment of cytochrome c (with CL), sequence (P99999 2-105 limits assumed, species assumed): as the sequence (P99999 2-105 limits assumed, species assumed, one chain of several) above

Turning to Dmt-D-Arg-Phe-(atn)Dap-NH2 [SS-19], on cytochrome c-CL complex [1] (2 μM cytochrome c), the “peptide fluorescence on addition of cytochrome c in the presence of CL” value is recorded as “larger extent of quenching of SS-19 fluorescence”. The “peptide fluorescence on addition of CL” value on cytochrome c-CL complex [1] (FIG. 23B) was “increase in SS-19 fluorescence”. Besides, the “peroxidase activity in cytochrome c/CL complex” value on cytochrome c-CL complex [2] was “preventing peroxidase activity in cytochrome c/CL complex”. Moreover, in the assay on cytochrome c (BSA 500 μg/ml, FIG. 22C), the “displacement of cytochrome c quenching by bovine serum albumin” value is given as “not displaced”. The “dependence of interaction on amount of cytochrome c” value in the assay on cytochrome c (FIG. 22D) is “linearly dependent on the amount of cytochrome c added”. Further, the “peptide fluorescence on addition of cytochrome c” value in the assay on cytochrome c (peptide 10 μM, 2 μM cytochrome c, no CL) is recorded as “similarly quenched; also recorded: immediate quenching of the fluorescence signal”. Besides, in assay [3], the “disappearance of the negative Cotton effect caused by CL (heme environment of cytochrome c)” value was “Protect the Heme Environment of Cytochrome C from the Acyl Chain of CL”. Besides, the “increase in quantal yield of peptide fluorescence” value in assay [4] came to 2 fold. Moreover, the “shift in λmax on addition of CL” value in assay [4] (excitation 320 nm) is reported as “no significant shift in λmax”. In addition, in assay [5] (mitoplasts 0.4 mg, FIG. 22B), the “quenching of peptide fluorescence by cytochrome c-depleted mitoplasts” value is reported as “significantly reduced”. Further, the “peptide fluorescence on addition of mitochondria” value in assay [5] (peptide 10 μM, sequential addition of 0.2 mg mitochondria, FIG. 22A) is recorded as “quenched”.

For the substance D-Arg-2′6′-Dmt-Tyr-Lys-Phe-NH2, in assay [6], the lipid peroxidation entry is “inhibit lipid peroxidation”; the neutralizing reactive species entry was “can neutralize H2O2, hydroxyl radical, and peroxynitrite”. Further, the “efficacy in animal models” value in assay [7] is “remarkable efficacy”.

These data come from patent US20140349941A1, “AROMATIC-CATIONIC PEPTIDES AND USES OF SAME” (Cornell University, priority 2011, published 2014).
